From PubChem BioAssay (NCI)
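1) Cells in 96-well plates. 2) Compound, 48 h, 5 concentrations. 3) Linear interpolation between surrounding doses. 4) Unreached endpoint = highest concentration. Definition used: TGI = concentration required for complete inhibition of growth.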

Legend:
Experiment in all cases: DTP human tumour cell line panel, 48 h
HS 578T breast = tested on: HS 578T breast
HOP-62 NSCLC = tested on: HOP-62 NSCLC
HCT-15 colon = tested on: HCT-15 colon
RPMI-8226 leukemia = tested on: RPMI-8226 leukemia
ACHN renal = tested on: ACHN renal
PC-3 prostate = tested on: PC-3 prostate
OVCAR-8 ovarian = tested on: OVCAR-8 ovarian
TK-10 renal = tested on: TK-10 renal
MDA-MB-231 breast = tested on: MDA-MB-231 breast
SK-MEL-28 melanoma = tested on: SK-MEL-28 melanoma
CCRF-CEM leukemia = tested on: CCRF-CEM leukemia
MDA-N = tested on: MDA-N
CAKI-1 renal = tested on: CAKI-1 renal
SN12C renal = tested on: SN12C renal
OVCAR-4 ovarian = tested on: OVCAR-4 ovarian
HOP-92 NSCLC = tested on: HOP-92 NSCLC
OVCAR-5 ovarian = tested on: OVCAR-5 ovarian

Row | Compound | TGI (HS 578T breast) | TGI (HOP-62 NSCLC) | TGI (HCT-15 colon) | TGI (RPMI-8226 leukemia) | TGI (ACHN renal) | TGI (PC-3 prostate) | TGI (OVCAR-8 ovarian) | TGI (TK-10 renal) | TGI (MDA-MB-231 breast) | TGI (SK-MEL-28 melanoma) | TGI (CCRF-CEM leukemia) | TGI (MDA-N) | TGI (CAKI-1 renal) | TGI (SN12C renal) | TGI (OVCAR-4 ovarian) | TGI (HOP-92 NSCLC) | TGI (OVCAR-5 ovarian)
1 | O=C(/C=C/c1ccc(O)c(O)c1)O[C@H]1CCCC[C@@H]1OC(=O)/C=C/c1ccc(O)c(O)c1 | > 100 µM | 41.1 µM | 35.7 µM | > 100 µM | 38.3 µM | > 100 µM | 57.1 µM | 57.7 µM | > 100 µM | 44.1 µM | 61 µM | 26.5 µM | > 100 µM | 50.1 µM | > 100 µM | 52.1 µM | 33.9 µM
2 | N#CCc1nc(-c2cc3ccc(O)cc3oc2=O)cs1 | > 100 µM | > 100 µM | > 100 µM | 81.2 µM | > 100 µM | > 100 µM | > 100 µM | > 100 µM | > 100 µM | > 100 µM | > 100 µM | > 100 µM | > 100 µM | > 100 µM | > 100 µM | > 100 µM | > 100 µM
3 | CCOC(=O)/C=C(/C(=O)OCC)n1cc(C)c(=O)[nH]c1=O | 46.9 µM | 33.2 µM | 4.92 µM | 5.68 µM | 7.51 µM | 20.6 µM | 9.81 µM | 5.48 µM | 18.4 µM | 15.5 µM | 4.61 µM | 17.7 µM | 2.57 µM | 12.3 µM | > 32.2 µM | 3.72 µM | 13.3 µM
4 | CNc1ccc(Cl)cc1C(=O)N1CCC[C@H]1CO | > 100 µM | > 100 µM | > 100 µM | > 100 µM | > 100 µM | > 100 µM | > 100 µM | > 100 µM | > 100 µM | > 100 µM | > 100 µM | > 100 µM | > 100 µM | > 100 µM | > 100 µM | > 100 µM | > 100 µM
5 | COC(OC)[C@@H]1OC[C@H](n2ccc(=O)[nH]c2=O)[C@H]1O | > 100 µM | > 100 µM | > 100 µM | > 100 µM | > 100 µM | > 100 µM | – | > 100 µM | > 100 µM | > 100 µM | > 100 µM | > 100 µM | > 100 µM | > 100 µM | > 100 µM | > 100 µM | > 100 µM
6 | Oc1c(O)c(Cc2ccccc2)c(Cc2ccccc2)c(Cc2ccccc2)c1Cc1ccccc1 | > 10 µM | > 10 µM | > 10 µM | > 10 µM | > 10 µM | > 10 µM | > 10 µM | > 10 µM | > 10 µM | > 10 µM | > 10 µM | > 10 µM | > 10 µM | > 10 µM | > 10 µM | > 10 µM | > 10 µM
7 | COc1cc(/C=C/C(=O)N[C@@H]2C(=O)N3[C@@H]2SC(C)(C)[C@@H]3C(=O)O)ccc1O | > 100 µM | > 100 µM | > 100 µM | > 100 µM | > 100 µM | > 100 µM | > 100 µM | > 100 µM | > 100 µM | > 100 µM | > 100 µM | > 100 µM | > 100 µM | > 100 µM | > 100 µM | > 100 µM | > 100 µM
8 | Clc1ccc(C2=Cc3nc2c(-c2ccccc2)c2ccc([nH]2)c(-c2ccccc2)c2nc(c(-c4ccccc4)c4ccc([nH]4)c3-c3ccccc3)C=C2)cc1 | > 62.5 µM | > 62.5 µM | > 62.5 µM | > 62.5 µM | > 62.5 µM | > 62.5 µM | > 62.5 µM | > 62.5 µM | > 62.5 µM | > 62.5 µM | > 62.5 µM | > 62.5 µM | 49.9 µM | > 62.5 µM | > 62.5 µM | > 62.5 µM | > 62.5 µM
9 | CN1CCN(c2ccc3nc(-c4ccc5nc(CCCc6ccc(N(CCCl)CCCl)cc6)[nH]c5c4)[nH]c3c2)CC1 | > 100 µM | > 100 µM | > 100 µM | > 100 µM | > 100 µM | > 100 µM | > 100 µM | > 100 µM | > 100 µM | > 100 µM | > 100 µM | > 100 µM | > 100 µM | > 100 µM | > 100 µM | > 100 µM | > 100 µM
10 | COc1ccc(N2C(=O)C3c4[nH]c5ccc(OC)cc5c4C4CCC(c5ccccc5)CC4C3C2=O)cc1 (centres undefined) | 12.7 µM | 20.8 µM | > 100 µM | 39.7 µM | 34 µM | > 75.7 µM | > 49.2 µM | > 57.7 µM | 25 µM | 37 µM | 10.3 µM | > 66.7 µM | 40.6 µM | 27.9 µM | 19.3 µM | 35.9 µM | > 64.5 µM
11 | C/C=C/C(O)P(=O)(OC)OC (centres undefined) | 0.915 µM | 2.23 µM | 1.06 µM | 0.514 µM | 1.25 µM | 1.43 µM | 1.78 µM | 1.45 µM | 1.57 µM | 1.36 µM | > 100 µM | 0.671 µM | 1.85 µM | 1.79 µM | 1.51 µM | 0.27 µM | 1.22 µM
12 | CCC1=NC(N/N=C/c2ccco2)=N/C1=C\c1ccco1 | > 100 µM | > 100 µM | > 100 µM | > 100 µM | > 100 µM | > 100 µM | > 100 µM | > 100 µM | > 100 µM | > 100 µM | > 100 µM | > 100 µM | > 100 µM | > 100 µM | > 100 µM | > 100 µM | > 100 µM
13 | CCCCCCCCCCCCCCCCCCOC(COP(=O)(O)OCC1OC(n2cc(F)c(=O)[nH]c2=O)CC1O)COP(=O)(O)OCC1OC(n2ccc(N)nc2=O)C(O)C1O (centres undefined) | > 100 µM | > 100 µM | > 100 µM | > 100 µM | > 100 µM | 78.8 µM | > 100 µM | > 100 µM | > 100 µM | > 100 µM | > 81.2 µM | > 100 µM | > 100 µM | > 100 µM | > 100 µM | > 94.8 µM | > 100 µM
14 | CCC12CN(C(=O)OC)C3C(Br)C1CCC(=O)C32 (centres undefined) | > 100 µM | > 100 µM | > 100 µM | > 100 µM | > 100 µM | > 100 µM | > 100 µM | > 100 µM | > 100 µM | > 100 µM | > 100 µM | > 100 µM | > 100 µM | – | > 100 µM | > 100 µM | > 100 µM
15 | COC(=O)C1=C(C(=O)OC)N(c2ccncc2)C(c2ccco2)=CC1c1ccccc1[N+](=O)[O-] (centres undefined) | 27.8 µM | > 46.2 µM | 5.58 µM | 5.69 µM | 3.47 µM | 31 µM | 28.8 µM | 6.85 µM | 27.5 µM | 27.2 µM | 7.43 µM | 7.51 µM | 31.6 µM | 9.72 µM | 15.7 µM | 32.4 µM | 30.6 µM
16 | NC(=S)NN=C1Cc2ccccc2C1 | > 100 µM | > 100 µM | > 100 µM | > 100 µM | > 100 µM | > 100 µM | > 100 µM | > 100 µM | > 100 µM | > 100 µM | > 100 µM | > 100 µM | > 100 µM | > 100 µM | > 100 µM | > 100 µM | > 100 µM
17 | CCOC(=O)n1ccc2c(C(=O)OC)c(C(=O)OC)cc(/C(=C/C(=O)OC)C(=O)OC)c21 | > 100 µM | > 100 µM | – | > 100 µM | > 100 µM | > 100 µM | > 100 µM | > 100 µM | > 100 µM | > 100 µM | > 100 µM | > 100 µM | > 100 µM | > 100 µM | > 100 µM | > 100 µM | > 100 µM
18 | CCOC(=O)c1nc2ccc(C(F)(F)F)cc2nc1NCc1ccc(F)cc1 | 86.5 µM | > 100 µM | > 100 µM | > 100 µM | > 100 µM | > 100 µM | > 100 µM | > 100 µM | > 100 µM | > 100 µM | > 100 µM | > 100 µM | > 100 µM | > 100 µM | 90.9 µM | 29.2 µM | > 100 µM
19 | O=c1oc2ccccc2c(O)c1Cc1ccccc1Cc1c(O)c2ccccc2oc1=O | > 100 µM | > 100 µM | > 100 µM | > 100 µM | > 100 µM | > 100 µM | > 100 µM | > 100 µM | > 100 µM | > 100 µM | > 100 µM | > 100 µM | > 100 µM | > 100 µM | > 100 µM | > 100 µM | > 100 µM
20 | N#CC(C#N)=C(N)/C(C#N)=C/c1ccc(O)c(O)c1 | > 100 µM | > 100 µM | > 100 µM | > 100 µM | > 100 µM | > 100 µM | > 100 µM | > 100 µM | > 100 µM | > 100 µM | > 100 µM | > 100 µM | > 100 µM | > 100 µM | > 100 µM | > 100 µM | > 100 µM
21 | CC(C)C(=O)/C=C/c1ccc(Cl)cc1Cl | 22.2 µM | 33.1 µM | 25.2 µM | > 100 µM | 29.7 µM | 32.8 µM | 22.8 µM | 27.2 µM | 38.7 µM | 30.6 µM | 50.7 µM | 7.06 µM | 24.8 µM | 23 µM | 20.9 µM | 30.8 µM | 30.7 µM
